Results taken from publication PMC8868518, “Exploring Titanium(IV) Complexes as Potential Antimicrobial Compounds” (Antibiotics, 2022).

Tests used:
[1] = system: K. pneumoniae (ATCC 700603); test: CO-ADD antibacterial assay, growth inhibition (OD600); type: cell-based, Klebsiella pneumoniae; conditions: up to 32 μg/mL
E. coli (ATCC 25922) = test: as above; type: cell-based, Escherichia coli; conditions: up to 32 μg/mL
[2] = system: S. aureus MRSA (ATCC 43300); test: as above; type: cell-based, Staphylococcus aureus
[3] = system: C. neoformans (ATCC 208821); test: CO-ADD antifungal assay, growth inhibition (resazurin, OD600-570); type: cell-based, Cryptococcus neoformans; conditions: up to 32 μg/mL
MRC-5 cells = test: MRC-5 cell viability, dose-response treatment, MTT assay; type: cell-based, human; conditions: pH 7.4
Method: A thawed stock of MRC-5 cells was washed with 1X PBS and resuspended in phenol red DMEM media (supplemented with 10% FBS and 1% of penicillin-streptomycin) and then seeded in a 100 mm × 20 mm (complete, O.D. x H) petri dish and grown in a 5% (v/v) CO2 humidified atmosphere at 37 °C. At least three passages were performed to ensure the integrity of the cells. After this point, cells were collected, thoroughly washed with 1X PBS, and then resuspended in phenol red-free DMEM (supplemented with 10% FBS, 1% Streptomycin/Penicillin, and 2.4 mM L-glutamine) at a 2.0 × 10^5 cells/mL concentration. Approximately 100 µL of the cell solution was seeded into wells of several 96-well plates to begin the MTT assay, which was performed in the 5% (v/v) CO2 humidified atmosphere at 37 °C. At least one lane of wells in each plate was supplied media without cells as a control. […] Most of the compounds were dissolved in 1X PBS buffer at pH 7.4. […] Titanocene dichloride was prepared as a fresh stock solution in DMSO and then diluted in 0.1 M NaCl (aq) instead of 1X PBS (to minimize hydrolysis induced precipitation) to the desired concentration while maintaining a constant 1% (v/v) DMSO background (0.5% DMSO after mixing with the well media). A control of cells treated with media containing 1% (v/v) DMSO was included in the study. The titanocene solutions were used within an hour of preparation in the final cell solution. […] At 3 h before a total of 72 h of incubation with the compounds, the cells were treated with 25 µL of 9 mg/mL MTT prepared in 1X PBS and sterile-filtered. Upon completion of the three hours, 50 µL of 10% (w/v) SDS (prepared in 0.1 M Tris buffer at pH 11) was added to solubilize the purple formazan product crystals and left overnight in the incubator. Control wells in the plates consisted of: (1) Untreated cells + MTT as the measure of 100% viable cell growth in the media and (2) Media with no cells + MTT as the measure of zero cells in the media. Two sets of compounds could be tested per plate. The plates were read at the wavelength of 570 nm (absorbance of the formazan product at pH 10.0) and 800 nm (background control) using a Tecan plate reader. The absorbance of all wells was compared to the absorbance of the untreated cells with the MTT set as the 100% viable cell standard and the absorbance of the zero cell control set as the 0% viable cell standard. […] Nonlinear regression in Origin 8.5 was utilized to fit the growth curves using the pharmacology dose–response equation to determine the half-maximal inhibitory concentration (IC50) and the corresponding standard deviation. All samples were tested six times.

C. albicans (ATCC 90028) = test: CO-ADD antifungal assay, growth inhibition (OD630); type: cell-based, Candida albicans; conditions: up to 32 μg/mL
[4] = system: A. baumannii (ATCC 19606); test: CO-ADD antibacterial assay, growth inhibition (OD600); type: cell-based, Acinetobacter baumannii; conditions: up to 32 μg/mL
[5] = Aqueous solution stability, ligand exchange lability and solubility; conditions: water / aqueous buffer
[6] = system: P. aeruginosa (ATCC 27853); test: CO-ADD antibacterial assay, growth inhibition (OD600); type: cell-based, Pseudomonas aeruginosa; conditions: up to 32 μg/mL
[7] = system: hemolytic and nonhemolytic S. aureus cultures; parameters: method as in doi:10.2298/abs141203061g; conditions: cited from earlier work
[8] = cited from earlier work
[9] = system: total intestinal bacterial count; parameters: method as in PMID 11762532; conditions: white mice, supplied in bread; cited from earlier work
[10] = predicted or measured MIC, ≥75% growth inhibition
[11] = predicted or measured MIC, ≥75% growth inhibition, 36 h

## O=C1[O][Ti-2]23([O]C(=O)c4ccccc4[O]2)([O]C(=O)c2ccccc2[O]3)[O]c2ccccc21.[Na+].[Na+] [Compound 12, Na2[Ti(Salicylate)3]]
[1]; [10]
  MIC K. pneumoniae: >32 µg/mL
[1]
  Dmax K. pneumoniae, maximum % inhibition: 12.46%
E. coli (ATCC 25922); [10]
  MIC E. coli: >32 µg/mL
E. coli (ATCC 25922)
  Dmax E. coli, maximum % inhibition: 2.6%
[2]; predicted or measured MIC, lowest concentration with ≥75% growth inhibition, 0.25-32 μg/mL, 18 h
  MIC S. aureus (MRSA): >32 µg/mL
[2]; up to 32 μg/mL
  Dmax S. aureus (MRSA), maximum % inhibition: 3.66%
[3]; [11]
  MIC C. neoformans: >32 µg/mL
[3]
  Dmax C. neoformans, maximum % inhibition: −5.2%
MRC-5 cells
  IC50 ± SD (µg/mL), relative IC50: 5.14 ± 0.92 µg/mL
MRC-5 cells; read-out: IC50 ± SD (µM), relative IC50
  IC50: 8.6 ± 1.54 µM
C. albicans (ATCC 90028); [11]
  MIC C. albicans: >32 µg/mL
C. albicans (ATCC 90028)
  Dmax C. albicans, maximum % inhibition: 49.3%
[4]; [10]
  MIC A. baumannii: >32 µg/mL
[4]
  Dmax A. baumannii, maximum % inhibition: 9.4%
[5]
  solubility (in words): limited solubility in water
[6]; [10]
  MIC P. aeruginosa: >32 µg/mL
[6]
  Dmax P. aeruginosa, maximum % inhibition: 9.57%

## O=C([O-])CC1(CC(=O)[O-])[O][Ti-2]23([O]C1=O)([O]C(=O)C(CC(=O)[O-])(CC(=O)[O-])[O]2)[O]C(=O)C(CC(=O)[O-])(CC(=O)[O-])[O]3 [Ti(citrate)3^8−]
[7]; all concentrations tested (0.5 to 50 mM)
  biofilm formation (in words): significantly activated biofilm formation
[7]; only the early phase of the bacterial growth cycle
  concentration with significant inhibition of growth rate: 50 mM
[8]
  ligand exchange lability (in words): ligand exchange labile

## O=C(O)C(=O)O.[O]=[Ti] [titanyl oxalate]
[9]
  decrease in the total intestinal bacterial count: 50%
